Data taken from patent US11109593B2, “Isoxazolin-5-one derivative and herbicide containing same as active ingredient” (HOKKO CHEMICAL INDUSTRY CO., LTD., priority 2017, dated 2021).

Tests used:
Assay type in all cases: in vivo
Amaranthus viridis = experiment: Test Example 3: herbicidal effect test by treatment of dry field farming soil (one day after seeding); settings: 120 g/10a active ingredient, evaluated 14 days after treatment
Description: (§1) This test was conducted in a double system per one agent solution concentration area, and the herbicidal rates (%) were determined by the following equation (Math. 1) on 14 days after the treatment with the agents. Herbicidal Rate (%)={1-(Average Dry Weight (g) of Plant of Treated Area)/(Average Dry Weight (g) of Plant of Untreated Area)}×100 [Math. 1]
(§2) Herbicidal Effect Test by Treatment of Dry Field Farming Soil
(§3) Pots with a size of 36 cm^2 were filled with a dry field farming soil (alluvium). The soil of the top layer of 1 cm and seeds of weeds, namely southern crabgrass, Echinochloa crus-galli, Chenopodium album and Amaranthus viridis, 20 seeds each, were evenly mixed, and the top layer was gently pressed. Emulsions prepared using the compounds in Table 5 below according to Formulation Example 5 were diluted with water one day after seeding, and the water-diluted agent solutions were sprayed to the soil surfaces at a ratio of 100 liters per 10 ares. The converted amount of the applied active ingredient corresponded to 120 g per 10 ares. The herbicidal effects were evaluated by the same standard as that in Test Example 1 on 14 days after the treatment with the agents. […] The compound numbers in Table 5 are the same as those in Table 1 and Table 2 above.

Echinochloa crus-galli [1] = experiment: as above; settings: 120 g/10a active ingredient, evaluated 14 days after treatment
Description: as §1, §2, §3

southern crabgrass = experiment: as above; settings: 120 g/10a active ingredient, evaluated 14 days after treatment
Description: as §1, §2, §3

Chenopodium album = experiment: as above; settings: 120 g/10a active ingredient, evaluated 14 days after treatment
Description: as §1, §2, §3

[2] = system: broad leaf weeds (Lindernia pyxidaria and Monochoria vaginalis); experiment: Test Example 1: herbicidal effect test by treatment of rice paddy soil (immediately after seeding)
Outline: (§4)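 Puddled, fertilized (N:P:K=17:17:17) paddy soil in Wagner pots; seeds sown 0–1 cm deep, flooded to about 3 cm. Emulsifiable formulations diluted in water and dropped into the water immediately after seeding at 120 g active ingredient per 10 ares; greenhouse. Herbicidal rate from dry weight vs untreated at 14 days.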

Echinochloa crus-galli [3] = experiment: as above
Outline: as §4

Scirpus juncoides [4] = experiment: as above
Outline: as §4

[5] = system: broad leaf weeds (Lindernia pyxidaria and Monochoria vaginalis); experiment: Test Example 2: herbicidal effect test by treatment during growing period in paddy rice cultivation (seven days after seeding); settings: 120 g/10a active ingredient, assessed 14 days after treatment, dry weight vs untreated area
Outline: (§5)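 Herbicidal rate (%) = {1 − treated/untreated mean plant dry weight} × 100, assessed in duplicate 14 days post-treatment. Emulsion formulations were diluted in water and dropped onto flooded (about 3 cm) paddy pots 7 days after seeding, giving 120 g a.i. per 10 ares. Plants were grown in a glass greenhouse.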

Echinochloa crus-galli [6] = experiment: as above; settings: 120 g/10a active ingredient, assessed 14 days after treatment, dry weight vs untreated area
Outline: as §5

Scirpus juncoides [7] = experiment: as above; settings: 120 g/10a active ingredient, assessed 14 days after treatment, dry weight vs untreated area
Outline: as §5

[8] = Lindernia pyxidaria, 120 g/10a active ingredient, dry weight vs untreated area, 14 days after treatment
[9] = Monochoria vaginalis, 120 g/10a active ingredient, dry weight vs untreated area, 14 days after treatment
[10] = 120 g/10a active ingredient, dry weight vs untreated area, 14 days after treatment
[11] = 120 g/10a active ingredient, 14 days after treatment, dry weight vs untreated area

Structure (SMILES) | herbicidal rate, Amaranthus viridis (Amaranthus viridis) | herbicidal rate, Echinochloa crus-galli (Echinochloa crus-galli [1]) | herbicidal rate, southern crabgrass (southern crabgrass) | herbicidal rate, Chenopodium album (Chenopodium album) | Herbicidal rate (%) Lindernia pyxidaria [2, 8] | Herbicidal rate (%) Monochoria vaginalis [2, 9] | Herbicidal rate (%) Echinochloa crus-galli (Echinochloa crus-galli [3]; [10]) | Herbicidal rate (%) Scirpus juncoides (Scirpus juncoides [4]; [10]) | Herbicidal rate (%) Lindernia pyxidaria [5] | Herbicidal rate (%) Monochoria vaginalis [5] | Herbicidal rate (%) Echinochloa crus-galli (Echinochloa crus-galli [6]) | Herbicidal rate (%) Scirpus juncoides (Scirpus juncoides [7]) | Herbicidal rate (%) Lindernia pyxidaria ([2]; Lindernia pyxidaria, 120 g/10a active ingredient, 14 days after treatment, dry weight vs untreated area) | Herbicidal rate (%) Monochoria vaginalis ([2]; Monochoria vaginalis, 120 g/10a active ingredient, 14 days after treatment, dry weight vs untreated area) | Herbicidal rate (%) Echinochloa crus-galli (Echinochloa crus-galli [3]; [11]) | Herbicidal rate (%) Scirpus juncoides (Scirpus juncoides [4]; [11])
Cc1c(Cc2ccccc2N(S(=O)(=O)C(F)(F)F)S(=O)(=O)C(F)(F)F)c(=O)on1CCCc1ccccc1 [Compound 1-1048] | 40% | 40% | 0% | 40% | 80% | 60% | 90% | 80% | 60% | 60% | 90% | 40% |  |  |  | 
Cc1c(Cc2ccccc2NS(=O)(=O)C(F)(F)F)c(=O)on1CC1CC1 [Compound 1-143] | 60% | 50% | 40% | 0% | 100% | 100% | 90% | 90% | 70% | 80% | 90% | 90% |  |  |  | 
Cc1c(Cc2ccccc2N(S(=O)(=O)C(F)(F)F)S(=O)(=O)C(F)(F)F)c(=O)on1CC1(C)CO1 (stereo not drawn) [Compound 1-1051] | 80% | 80% | 80% | 60% |  |  |  |  | 40% | 80% | 90% | 90% | 60% | 80% | 80% | 100%
Cc1c(Cc2ccccc2NS(=O)(=O)C(F)(F)F)c(=O)on1CCOc1ccccc1 [Compound 1-237] | 80% | 50% | 50% | 40% | 90% | 80% | 90% | 80% | 60% | 90% | 90% | 90% |  |  |  | 
Cc1c(Cc2ccccc2NS(=O)(=O)C(F)(F)F)c(=O)on1CCCc1ccccc1 [Compound 1-221] | 50% | 70% | 50% | 40% | 70% | 60% | 90% | 80% | 40% | 40% | 60% | 40% |  |  |  | 
Cc1c(Cc2ccccc2NS(=O)(=O)C(F)(F)F)c(=O)on1CC1(C)COC1 [Compound 1-229] | 60% | 40% | 60% | 40% | 80% | 100% | 70% | 90% | 60% | 90% | 70% | 90% |  |  |  | 
Cc1c(Cc2ccccc2N(S(=O)(=O)C(F)(F)F)S(=O)(=O)C(F)(F)F)c(=O)on1Cc1ccccc1 [Compound 1-1011] | 40% | 90% | 80% | 40% | 90% | 90% | 90% | 90% | 90% | 90% | 40% | 90% |  |  |  | 
Cc1c(Cc2ccccc2N(C(=O)OC(C)C)S(=O)(=O)C(F)(F)F)c(=O)on1C(C)(C)C [Compound 1-641] | 90% | 90% | 90% | 90% | 90% | 90% | 90% | 90% | 90% | 90% | 90% | 90% |  |  |  | 
CCCOC(=O)N(c1ccccc1Cc1c(C)n(C(C)(C)C)oc1=O)S(=O)(=O)C(F)(F)F [Compound 1-631] | 90% | 90% | 90% | 90% | 90% | 90% | 90% | 90% | 90% | 90% | 90% | 90% |  |  |  | 
CCn1oc(=O)c(Cc2ccccc2N(S(=O)(=O)C(F)(F)F)S(=O)(=O)C(F)(F)F)c1C [Compound 1-960] | 0% | 100% | 80% | 0% | 70% | 70% | 80% | 80% | 70% | 70% | 70% | 70% |  |  |  | 
Cc1c(Cc2ccccc2NS(=O)(=O)C(F)(F)F)c(=O)on1S(=O)(=O)C(C)C [Compound 1-251] | 80% | 100% | 80% | 80% | 90% | 100% | 100% | 80% | 50% | 80% | 50% | 90% |  |  |  | 
Cc1c(Cc2ccccc2N(C(=O)c2ccccc2)S(=O)(=O)C(F)(F)F)c(=O)on1C(C)C [Compound 1-472] | 0% | 90% | 70% | 50% | 90% | 60% | 90% | 90% | 80% | 90% | 90% | 90% |  |  |  | 
Cc1c(Cc2ccccc2NS(=O)(=O)C(F)(F)F)c(=O)on1CCc1ccccc1 [Compound 1-216] | 40% | 60% | 70% | 0% | 100% | 100% | 90% | 100% | 100% | 100% | 90% | 90% |  |  |  | 
